System: neurons
Assay: % neuron loss for test agents in a rat model with Alzheimer's disease (FIG. 1)
Format: in vivo
Conditions: rat model with AD
Description: FIG. 1 is a plot of % neuron loss for several test agents in a rat model with Alzheimer's disease (AD).

Row | Structure (SMILES) | % neuron loss (killing effect) (dapsone alone at 2 mg/kg) | % neuron loss (killing effect) (hydroxychloroquine alone at 6.5 mg/kg)
1 | Nc1ccc(S(=O)(=O)c2ccc(N)cc2)cc1 [dapsone, 4,4′-diaminodiphenylsulfone] | suppression of the in vitro killing effect | 
2 | CCN(CCO)CCCC(C)Nc1ccnc2cc(Cl)ccc12 (centres unmarked) [hydroxychloroquine] |  | suppression of the in vitro killing effect

From patent US20070129439A1, “COMPOSITIONS CONTAINING SUBSTITUTED QUINOLINES AND SUBSTITUTED DIPHENYL SULFONES AND METHODS OF USE” (priority 2003, published 2007)
